The values below come from patent US11584747B2, “Substituted pyridopyrimidinonyl compounds useful as T cell activators” (BRISTOL-MYERS SQUIBB COMPANY, priority 2019, dated 2023).

The target in one assay is human DGKζ (Homo sapiens (Human), UniProt Q13574). The assay is described as follows: DGKζ LIPGLO assay (extruded liposome substrate, ADP-Glo luminescence). The format is biochemical.
Another assay addresses human DGKα (Homo sapiens (Human), UniProt P23743). As to the kind of experiment: DGKα ADPGLO assay (detergent/lipid micelle substrate). The format is biochemical. The procedure:
DGK Alpha ADPGLO (Truncated) IC50 (uM)
The detergent/lipid micelle was prepared by combining 15 g phosphatidylserine (Avanti 840035P) and 1 g diacylglycerol (8008110) and dissolving into 150 mL chloroform in a 2 L round bottom flask. Chloroform was removed under high vacuum by rotary evaporation. […] The lipid/detergent solution was split into 5 mL aliquots and stored at −80° C.
In general terms: In ADP-Glo the light output rises with the ADP produced.

For assay [1], the system named is human venous whole blood (IFN-γ). As to the kind of experiment: Human whole blood IFN-γ assay. The format is cell-based. The procedure: Human venous whole blood (22.5 μL per well), obtained from healthy donors, was pre-treated with compounds for one hour at 37° C. in a humidified 95% air/5% CO2 incubator. The blood was stimulated with 2.5 μL anti-human CD3 and anti-CD28 mAb at a final concentration of 1 μg/mL each for 24 hours at 37° C. IFN-γ in the supernatants was measured using AlphLISA kit (Cat #AL217).

Setting [2] is: liposome (LIPGLO) assay, read-out: DGK zeta (liposome assay) IC50.
Setting [3] is: ADPGLO assay, read-out: DGK alpha ADPGLO IC50.
[4] abbreviates: human whole blood, anti-CD3 plus anti-CD28 stimulation, 24 hours, read-out: IFN-γ Whole Blood EC50.
[5] abbreviates: liposome assay, read-out: DGK zeta LIPGLO IC50.
Setting [6] is: truncated DGK alpha, read-out: DGK alpha ADPGLO (Truncated) IC50.
The mark [7] stands for this setting: whole blood, normalized to 3 μM reference compound as 100% activation, read-out: IFN-γ Whole Blood Normalized EC50.

pEC50, pIC50: −log10 of the molar value. Where two headings read alike, the source gives them in different places.

Chain of human DGKα (P23743 whole entry, looked up, the tested form may be a part): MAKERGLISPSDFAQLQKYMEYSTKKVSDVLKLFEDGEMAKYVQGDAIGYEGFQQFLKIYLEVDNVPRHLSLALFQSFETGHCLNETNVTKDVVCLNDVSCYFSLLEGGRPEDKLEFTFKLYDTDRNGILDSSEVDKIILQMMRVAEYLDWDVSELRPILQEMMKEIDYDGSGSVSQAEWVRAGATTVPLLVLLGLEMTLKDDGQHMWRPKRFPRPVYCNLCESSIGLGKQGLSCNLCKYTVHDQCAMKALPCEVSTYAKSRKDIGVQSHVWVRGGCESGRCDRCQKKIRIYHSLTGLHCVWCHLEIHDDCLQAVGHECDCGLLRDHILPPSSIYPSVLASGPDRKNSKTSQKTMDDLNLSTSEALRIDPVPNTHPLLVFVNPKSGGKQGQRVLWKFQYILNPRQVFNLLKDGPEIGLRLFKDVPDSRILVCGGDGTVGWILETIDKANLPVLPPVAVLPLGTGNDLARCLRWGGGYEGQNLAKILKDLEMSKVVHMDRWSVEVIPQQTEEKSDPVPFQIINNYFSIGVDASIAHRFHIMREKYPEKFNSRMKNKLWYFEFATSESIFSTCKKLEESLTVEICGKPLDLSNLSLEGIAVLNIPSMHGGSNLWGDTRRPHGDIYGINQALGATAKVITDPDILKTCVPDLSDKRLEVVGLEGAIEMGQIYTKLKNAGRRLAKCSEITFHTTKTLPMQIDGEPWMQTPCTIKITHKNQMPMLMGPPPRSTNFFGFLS
Chain of human DGKζ (Q13574 other isoform, or with tags, fused parts or gaps): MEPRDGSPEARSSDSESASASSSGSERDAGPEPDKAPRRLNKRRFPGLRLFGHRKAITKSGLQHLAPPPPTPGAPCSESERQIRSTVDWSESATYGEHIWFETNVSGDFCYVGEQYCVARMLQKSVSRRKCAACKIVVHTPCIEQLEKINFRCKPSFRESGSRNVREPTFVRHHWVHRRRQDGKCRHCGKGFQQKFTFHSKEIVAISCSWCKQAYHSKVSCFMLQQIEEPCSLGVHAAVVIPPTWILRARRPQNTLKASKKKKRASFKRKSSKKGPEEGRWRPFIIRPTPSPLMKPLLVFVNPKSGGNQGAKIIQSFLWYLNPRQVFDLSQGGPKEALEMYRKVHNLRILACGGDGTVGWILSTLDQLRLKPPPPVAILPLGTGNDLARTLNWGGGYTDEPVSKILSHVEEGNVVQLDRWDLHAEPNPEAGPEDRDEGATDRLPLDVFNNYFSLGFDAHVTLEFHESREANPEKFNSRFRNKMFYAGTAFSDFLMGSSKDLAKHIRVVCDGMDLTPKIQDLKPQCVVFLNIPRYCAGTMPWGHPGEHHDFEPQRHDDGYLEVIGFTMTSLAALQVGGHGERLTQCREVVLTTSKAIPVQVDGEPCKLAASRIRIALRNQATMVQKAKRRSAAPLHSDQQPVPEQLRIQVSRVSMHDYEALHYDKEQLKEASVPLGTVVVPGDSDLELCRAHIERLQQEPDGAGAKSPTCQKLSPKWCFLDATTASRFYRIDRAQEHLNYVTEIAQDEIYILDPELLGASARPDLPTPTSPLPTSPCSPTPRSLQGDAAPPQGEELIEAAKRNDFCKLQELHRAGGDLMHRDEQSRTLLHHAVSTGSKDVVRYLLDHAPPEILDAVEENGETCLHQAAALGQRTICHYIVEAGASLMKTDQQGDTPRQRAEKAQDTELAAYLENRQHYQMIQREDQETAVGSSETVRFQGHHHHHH

`CC[C@H]1CN(C(C)c2nc(C3CC3)no2)[C@H](CC)CN1c1nc(=O)n(C)c2ccc(C#N)nc12` (stereo partly drawn) [Example 361, 4-((2S,5R)-4-(1-(3-cyclopropyl-1,2,4-oxadiazol-5-yl)ethyl)-2,5-diethylpiperazin-1-yl)-1-methyl-2-oxo-1,2-dihydropyrido[3,2-d]pyrimidine-6-carbonitrile]: the pIC50 (as a rule, the IC50 on a negative log10 scale, so that one unit is a factor of ten) at human DGKζ (setting [2]) was 7.66; on human DGKα (setting [3]), 8.30. Moreover, the pEC50 (commonly −log10 of the EC50, conventionally taken in molar units) in assay [1] (setting [4]) was 6.59.
On to `CC[C@H]1CN(C(C)c2ccc(CN3CCN(C(C)=O)CC3)cc2)[C@H](CC)CN1c1nc(=O)n(C)c2ccc(C#N)nc12` (stereo partly drawn) [Example 284, 4-((2S,5R)-4-(1-(4-((4-acetylpiperazin-1-yl)methyl)phenyl)ethyl)-2,5-diethylpiperazin-1-yl)-1-methyl-2-oxo-1,2-dihydropyrido[3,2-d]pyrimidine-6-carbonitrile], for which the pIC50 at human DGKζ (setting [5]) was 4.60; on human DGKα (setting [6]) it was 5.50. For the same compound, the pEC50 in assay [1] (setting [7]) is 4.89.
The like results for `CCC(c1ccc(C#N)cc1)N1C[C@H](CC)N(c2nc(=O)n(C)c3ccc(C#N)nc23)C[C@H]1CC` (stereo partly drawn) [Example 221, 4-((2S,5R)-4-(1-(4-cyanophenyl)propyl)-2,5-diethylpiperazin-1-yl)-1-methyl-2-oxo-1,2-dihydropyrido[3,2-d] pyrimidine-6-carbonitrile] were, in that order, 6.60, 8.70 and 6.32.
The like results for `CCC(c1ccc(OCC2CC2)cc1)N1C[C@H](CC)N(c2nc(=O)n(C)c3ccc(C#N)nc23)C[C@H]1CC` (stereo partly drawn) [Example 217, 4-((2S,5R)-4-(1-(4-(cyclopropylmethoxy)phenyl)propyl)-2,5-diethylpiperazin-1-yl)-1-methyl-2-oxo-1,2-dihydropyrido[3,2-d]pyrimidine-6-carbonitrile] were, in that order, 5.37, 5.78 and 6.06.
The like results for `CC[C@H]1CN(C(C)c2ccc(CN3CCC(OC)CC3)cc2)[C@H](CC)CN1c1nc(=O)n(C)c2ccc(C#N)nc12` (single isomer, unassigned) [Example 274] were, in that order, 3.76, 4.80 and 5.27.
As to `CC[C@H]1CN(C(C)c2ccc(CN3CCOC(C)(C)C3)cc2)[C@H](CC)CN1c1nc(=O)n(C)c2ccc(C#N)nc12` (stereo partly drawn) [Example 275, 4-((2S,5R)-4-(1-(4-((2,2-dimethylmorpholino)methyl)phenyl)ethyl)-2,5-diethylpiperazin-1-yl)-1-methyl-2-oxo-1,2-dihydropyrido[3,2-d]pyrimidine-6-carbonitrile], the pIC50 on human DGKζ (setting [5]) is 6.82; at human DGKα (setting [6]), 6.28. In addition, the pEC50 in assay [1] (setting [7]) is 7.46.
`CC[C@H]1CN(C(C)c2cnc(N3CCOCC3)nc2)[C@H](CC)CN1c1nc(=O)n(C)c2ccc(C#N)nc12` (stereo partly drawn) [Example 207, 4-((2S,5R)-2,5-diethyl-4-(1-(2-morpholinopyrimidin-5-yl)ethyl)piperazin-1-yl)-1-methyl-2-oxo-1,2-dihydropyrido[3,2-d] pyrimidine-6-carbonitrile]: the pIC50 on human DGKζ (setting [5]) was 6.01; on human DGKα (setting [6]), 6.21. The pEC50 in assay [1] (setting [7]) is 5.97.
The like results for `CC[C@@H]1CN(c2nc(=O)n(C)c3ccc(C#N)nc23)[C@@H](C)CN1C(C)c1ccc2oc(=O)n(C)c2c1` (stereo partly drawn) [Example 298, 4-((2S,5R)-5-ethyl-2-methyl-4-(1-(3-methyl-2-oxo-2,3-dihydrobenzo[d]oxazol-5-yl)ethyl)piperazin-1-yl)-1-methyl-2-oxo-1,2-dihydropyrido[3,2-d]pyrimidine-6-carbonitrile] were, in that order, 6.42, 6.32 and 6.38.
Regarding `CC[C@H]1CN(C(C)c2cnc(C(F)(F)F)nc2)[C@H](CC)CN1c1nc(=O)n(C)c2ccc(C#N)nc12` (stereo partly drawn) [Example 227, 4-((2S,5R)-2,5-diethyl-4-(1-(2-(trifluoromethyl)pyrimidin-5-yl)ethyl)piperazin-1-yl)-1-methyl-2-oxo-1,2-dihydropyrido[3,2-d]pyrimidine-6-carbonitrile], the pIC50 at human DGKζ (setting [5]) is 5.75; on human DGKα (setting [6]), 5.61. The pEC50 in assay [1] (setting [7]) was 6.19.
Turning to `CC[C@H]1CN(C(c2ccc(F)cc2)c2noc(C3CC3)n2)[C@H](CC)CN1c1nc(=O)n(C)c2ccc(C#N)nc12` (single isomer, unassigned) [Example 372], the pIC50 on human DGKζ (setting [2]) is 7.37; on human DGKα (setting [3]), 8.40. Further, in assay [1] (setting [4]), the pEC50 was 6.82.
In the case of `CCC(c1ccc(OCC2CC2)cc1)N1C[C@H](CC)N(c2nc(=O)n(C)c3ccc(C#N)nc23)C[C@H]1CC` (stereo partly drawn) [Example 216, 4-((2S,5R)-4-(1-(4-(cyclopropylmethoxy)phenyl)propyl)-2,5-diethylpiperazin-1-yl)-1-methyl-2-oxo-1,2-dihydropyrido[3,2-d]pyrimidine-6-carbonitrile], the pIC50 on human DGKζ (setting [5]) and at human DGKα (setting [6]) was 7.06 each time. Moreover, the pEC50 in assay [1] (setting [7]) is 7.92.
For the compound `CCC(c1ccc(OC)cc1)N1C[C@H](CC)N(c2nc(=O)n(C)c3ccc(C#N)nc23)C[C@H]1CC` (stereo partly drawn) [Example 213, 4-((2S,5R)-2,5-diethyl-4-(1-(4-methoxyphenyl)propyl)piperazin-1-yl)-1-methyl-2-oxo-1,2-dihydropyrido[3,2-d]pyrimidine-6-carbonitrile], the pIC50 on human DGKζ (setting [5]) is 6.02; at human DGKα (setting [6]), 7.23. Moreover, the pEC50 in assay [1] (setting [7]) was 6.72.
The like results for `CC[C@H]1CN(C(C)c2ccc(C(=O)OC)cc2)[C@H](CC)CN1c1nc(=O)n(C)c2ccc(C#N)nc12` (stereo partly drawn) [Example 266, methyl 4-(1-((2R,5S)-4-(6-cyano-1-methyl-2-oxo-1,2-dihydropyrido[3,2-d]pyrimidin-4-yl)-2,5-diethylpiperazin-1-yl)ethyl)benzoate] were, in that order, 7.55, 7.08 and 6.74.
As to `CC[C@H]1CN(C(C)c2nc(C3CC3)no2)[C@H](CC)CN1c1nc(=O)n(C)c2ccc(C#N)nc12` (stereo partly drawn) [Example 362, 4-((2S,5R)-4-(1-(3-cyclopropyl-1,2,4-oxadiazol-5-yl)ethyl)-2,5-diethylpiperazin-1-yl)-1-methyl-2-oxo-1,2-dihydropyrido[3,2-d]pyrimidine-6-carbonitrile], the pIC50 on human DGKζ (setting [2]) is 6.23; on human DGKα (setting [3]) it was 7.21. Also, in assay [1] (setting [4]), the pEC50 was 5.51.
With `CC[C@H]1CN(C(C)c2ccc(N3CCCC3=O)cc2)[C@H](CC)CN1c1nc(=O)n(C)c2ccc(C#N)nc12` (stereo partly drawn) [Example 230, 4-((2S,5R)-2,5-diethyl-4-(1-(4-(2-oxopyrrolidin-1-yl)phenyl)ethyl)piperazin-1-yl)-1-methyl-2-oxo-1,2-dihydropyrido[3,2-d]pyrimidine-6-carbonitrile], the pIC50 was 6.89 at human DGKζ (setting [5]) and 7.38 on human DGKα (setting [6]). Further, the pEC50 in assay [1] (setting [7]) was 5.89.
On to `CC[C@H]1CN(C(C)c2ccc(C(F)(F)F)cc2)[C@H](CC)CN1c1nc(=O)n(C)c2ccc(OCCOC)nc12` (stereo partly drawn) [Example 433, 4-((2S,5R)-2,5-diethyl-4-(1-(4-(trifluoromethyl)phenyl)ethyl)piperazin-1-yl)-6-(2-methoxyethoxy)-1-methylpyrido[3,2-d]pyrimidin-2(1H)-one], for which the pIC50 at human DGKζ (setting [2]) and on human DGKα (setting [3]) was 3.90 in each case. Besides, the pEC50 in assay [1] (Homo sapiens, 24 h, human whole blood, anti-CD3 plus anti-CD28 stimulation, 24 hours, read-out: IFN-γ Whole Blood EC50) is 4.70.
